Like-named read-outs stand apart in the source and are kept apart here.
Columns and labels:
[1] = system: NF54 strain of P. falciparum; experiment: parasite growth inhibition, chloroquine-sensitive NF54 strain cultured in vitro; format: cell-based, Plasmodium falciparum
[2] = system: hemozoin formation in NF54 strain of P. falciparum; experiment: cellular heme fractionation assay; format: cell-based, Plasmodium falciparum; conditions: NF54, 32 h incubation, drug added to early ring stage parasites
[3] = system: β-hematin formation; format: biochemical; conditions: for IC50: read-out: β-hematin inhibition IC50, NP-40 detergent mediated assay
[4] = system: Dd2 strain of P. falciparum; experiment: parasite growth inhibition, chloroquine-resistant Dd2 strain; format: cell-based, Plasmodium falciparum
[5] = system: Chinese hamster ovarian, CHO, cells; experiment: cytotoxicity against mammalian cells; format: cell-based
[6] = read-out: NF54 malaria parasite growth inhibition IC50, chloroquine-sensitive NF54 strain, LDH method of Makler et al

In the case of `O=C(Nc1ccc(-c2nc3ccccc3[nH]2)cc1)c1cc(Cl)nc(Cl)c1` [Compound 12, N-(4-(1H-Benzo[d]imidazole-2-yl)phenyl)-2,6-dichloroisonicotinamide], the “parasite growth inhibition activity (in words)” value [1] is reported as “sub-micromolar”.

With `O=C(Nc1ccc(-c2nc3ccccc3[nH]2)cc1)c1cncc(Br)c1` [Compound 5, N-(4-(1H-Benzo[d]imidazole-2-yl)phenyl)-5-bromonicotinamide] the “parasite growth inhibition activity (in words)” value [1] was “sub-micromolar”, the “change in freely exchangeable heme in the parasite cell” value [2] was “corresponding increase” and the “change in hemozoin in the parasite cell” value [2] was “large decrease”. The “change in undigested hemoglobin in the parasite cell” value [2] was “much smaller (non-significant) increase”.

In the case of `O=C(Nc1ccc(-c2nc3ccccc3[nH]2)cc1)c1ccccc1` [Compound 2], the “parasite growth inhibition activity (in words)” value [1] is reported as “virtually inactive” and the “β-hematin inhibition activity (in words)” value [3] is reported as “virtually inactive”.

`CCN(CC)CCCC(C)Nc1ccnc2cc(Cl)ccc12` (stereo not drawn) [Chloroquine, reference compound] showed an IC50 ([1]; Plasmodium falciparum, NF54, read-out: IC50 NF54) of 16 ± 6 nM, an IC50 ([1]; Plasmodium falciparum, NF54, read-out: NF54 malaria parasite growth inhibition IC50) of 16 ± 6 nM and an IC50 ([4]; Plasmodium falciparum, DD2, read-out: IC50 Dd2) of 150 ± 30 nM.

`O=C(Nc1ccc(-c2nc3ccccc3n2C(=O)c2ccccc2)cc1)c1cccc(Br)c1` [Compound 26, N-(4-(1H-Benzoyl-benzo[d]imidazole-2-yl)phenyl)-3-bromobenzamide] showed an IC50 [1, 6] of 2600 ± 600 nM and an IC50 [3] of 15.6 ± 0.5 µM.

For “N-(4-(1H-Benzo[d]imidazole-2-yl)phenyl)-3-(trifluoromethyl)nicotinamide [Compound 9]”, the “SI (Dd2) (Selectivity index = IC50 (CHO)/IC50 (Dd2))” value ([5]; CHO versus Dd2) was 32, the “SI (NF54) (Selectivity index = IC50 (CHO)/IC50 (NF54))” value ([5]; CHO versus NF54) was 44 and the IC50 ([5]; read-out: IC50 CHO, cytotoxicity in CHO cells) was 35 ± 4 µM. For the same compound, the “parasite growth inhibition activity (in words)” value [1] was “sub-micromolar”, the IC50 ([1]; read-out: IC50 NF54, chloroquine-sensitive NF54 strain (Table 2)) was 800 ± 500 nM and the IC50 [1, 6] was 800 ± 500 nM. For the same compound, the “RI (Resistance index = IC50 (Dd2)/IC50 (NF54))” value ([4]; Dd2 versus NF54) was 1.4, the IC50 ([4]; read-out: IC50 Dd2, chloroquine-resistant Dd2 strain) was 1100 ± 370 nM and the IC50 [3] was 16.6 ± 0.3 µM.
